Results from patent US8410112B2, “Compounds useful as inhibitors of ATR kinase” (Vertex Pharmaceuticals Incorporated, priority 2008, dated 2013).
pKi: −log10 of the molar value.

target: T1, full-length ATR (Homo sapiens, UniProt Q13535); experiment: ATR Inhibition Assay (radioactive-phosphate incorporation); format: biochemical; details: Ki(app); 5 nM full-length ATR, 10 μM ATP, 800 μM target peptide, 25° C.
T1 construct: in the presence of 5 nM full-length ATR
In short: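 Buffer was 50 mM Tris/HCl pH 7.5, 10 mM MgCl2, 1 mM DTT, with 5 nM enzyme, 10 μM [γ-33P]ATP and 800 μM target peptide at 25 °C. Compound was pre-incubated 10 min before ATP start, and the reaction was stopped after 24 h. Phosphocellulose filter capture; Ki(app) came from non-linear regression of background-corrected initial rates.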

T1 sequence (Q13535 whole entry): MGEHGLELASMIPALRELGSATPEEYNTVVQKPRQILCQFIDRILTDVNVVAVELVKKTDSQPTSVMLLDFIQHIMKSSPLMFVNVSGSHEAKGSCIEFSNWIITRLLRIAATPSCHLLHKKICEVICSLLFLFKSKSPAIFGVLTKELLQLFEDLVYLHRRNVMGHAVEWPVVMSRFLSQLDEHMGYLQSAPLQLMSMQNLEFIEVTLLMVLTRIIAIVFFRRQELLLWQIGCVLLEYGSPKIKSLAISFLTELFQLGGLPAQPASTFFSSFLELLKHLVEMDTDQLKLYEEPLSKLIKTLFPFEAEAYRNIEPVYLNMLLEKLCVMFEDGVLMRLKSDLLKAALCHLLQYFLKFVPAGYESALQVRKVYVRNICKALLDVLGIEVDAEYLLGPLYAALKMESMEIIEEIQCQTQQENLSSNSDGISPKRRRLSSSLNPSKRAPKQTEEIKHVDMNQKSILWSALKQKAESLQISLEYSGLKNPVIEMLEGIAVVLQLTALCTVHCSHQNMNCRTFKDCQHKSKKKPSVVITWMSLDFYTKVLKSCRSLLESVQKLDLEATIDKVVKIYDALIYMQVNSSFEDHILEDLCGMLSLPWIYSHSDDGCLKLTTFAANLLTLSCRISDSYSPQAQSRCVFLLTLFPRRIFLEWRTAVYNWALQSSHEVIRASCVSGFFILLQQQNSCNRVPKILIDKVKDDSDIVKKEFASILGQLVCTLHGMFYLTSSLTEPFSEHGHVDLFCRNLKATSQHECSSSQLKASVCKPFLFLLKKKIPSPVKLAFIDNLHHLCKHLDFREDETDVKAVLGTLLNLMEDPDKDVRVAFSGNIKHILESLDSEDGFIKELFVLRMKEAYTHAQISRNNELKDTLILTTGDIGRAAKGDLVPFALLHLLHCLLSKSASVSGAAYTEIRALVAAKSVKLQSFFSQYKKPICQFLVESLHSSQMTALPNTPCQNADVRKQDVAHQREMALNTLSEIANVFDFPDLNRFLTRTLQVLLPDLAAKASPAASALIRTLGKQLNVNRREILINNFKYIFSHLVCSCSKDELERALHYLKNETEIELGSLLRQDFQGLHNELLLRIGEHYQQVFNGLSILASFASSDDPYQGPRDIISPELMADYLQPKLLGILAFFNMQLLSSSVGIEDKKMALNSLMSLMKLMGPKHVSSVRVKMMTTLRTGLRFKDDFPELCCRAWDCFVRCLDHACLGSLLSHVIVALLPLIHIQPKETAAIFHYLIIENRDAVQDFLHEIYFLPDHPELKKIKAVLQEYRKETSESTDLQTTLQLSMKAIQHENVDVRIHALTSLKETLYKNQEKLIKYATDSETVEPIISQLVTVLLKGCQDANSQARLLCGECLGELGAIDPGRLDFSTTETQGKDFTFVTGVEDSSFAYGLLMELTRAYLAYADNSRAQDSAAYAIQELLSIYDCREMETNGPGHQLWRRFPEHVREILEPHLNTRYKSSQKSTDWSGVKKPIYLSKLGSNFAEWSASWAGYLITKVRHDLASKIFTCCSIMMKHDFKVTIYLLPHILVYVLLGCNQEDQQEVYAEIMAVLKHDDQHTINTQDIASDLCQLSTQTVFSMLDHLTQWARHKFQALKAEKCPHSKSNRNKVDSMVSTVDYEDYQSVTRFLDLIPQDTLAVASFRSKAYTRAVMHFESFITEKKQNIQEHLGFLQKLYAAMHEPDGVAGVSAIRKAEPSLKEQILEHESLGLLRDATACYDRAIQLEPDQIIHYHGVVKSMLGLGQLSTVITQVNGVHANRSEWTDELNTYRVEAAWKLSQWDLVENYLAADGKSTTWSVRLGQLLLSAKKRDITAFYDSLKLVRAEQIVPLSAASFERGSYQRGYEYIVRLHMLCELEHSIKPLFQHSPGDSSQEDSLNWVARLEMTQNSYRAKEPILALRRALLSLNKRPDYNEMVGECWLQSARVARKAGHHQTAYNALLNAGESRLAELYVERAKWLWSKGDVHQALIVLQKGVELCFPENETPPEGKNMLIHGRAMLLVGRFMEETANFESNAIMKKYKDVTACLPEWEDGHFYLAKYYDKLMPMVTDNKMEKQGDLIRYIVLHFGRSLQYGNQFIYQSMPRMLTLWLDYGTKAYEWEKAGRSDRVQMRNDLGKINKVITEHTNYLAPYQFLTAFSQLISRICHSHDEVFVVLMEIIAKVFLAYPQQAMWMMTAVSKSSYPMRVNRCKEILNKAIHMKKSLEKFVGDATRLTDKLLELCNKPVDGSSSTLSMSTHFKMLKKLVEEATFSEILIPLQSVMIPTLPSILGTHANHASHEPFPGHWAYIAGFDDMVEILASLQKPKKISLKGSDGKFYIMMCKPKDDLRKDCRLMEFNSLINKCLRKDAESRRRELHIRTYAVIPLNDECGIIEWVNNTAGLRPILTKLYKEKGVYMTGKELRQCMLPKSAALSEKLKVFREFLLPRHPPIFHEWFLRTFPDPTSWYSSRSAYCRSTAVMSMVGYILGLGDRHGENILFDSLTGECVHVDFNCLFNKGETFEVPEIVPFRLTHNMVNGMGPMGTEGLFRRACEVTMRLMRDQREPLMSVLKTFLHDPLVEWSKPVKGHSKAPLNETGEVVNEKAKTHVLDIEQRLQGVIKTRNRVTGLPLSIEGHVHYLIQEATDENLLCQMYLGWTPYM

Row | pKi | SMILES
1 | > 7.00 | CC(C)C(=O)N1CC=C(c2cnc(N)c(-c3nnc(-c4ccccc4)o3)n2)CC1 [Compound I-192, 1-(4-(5-amino-6-(5-phenyl-1,3,4-oxadiazol-2-yl)pyrazin-2-yl)-5,6-dihydropyridin-1(2H)-yl)-2-methylpropan-1-one]
2 | 6.00 to 7.00 | Cc1ccc2nc(-c3nc(N4CCOCC4)cnc3N)[nH]c2c1 [Compound I-3, 3-(6-methyl-1H-benzo[d]imidazol-2-yl)-5-morpholinopyrazin-2-amine]
3 | > 7.00 | Nc1ncc(C2=CCN(C(=O)c3c(F)cccc3F)CC2)nc1-c1nnc(-c2ccccc2)o1 [Compound I-133, (4-(5-amino-6-(5-phenyl-1,3,4-oxadiazol-2-yl)pyrazin-2-yl)-5,6-dihydropyridin-1(2H)-yl)(2,6-difluorophenyl)methanone]
4 | > 7.00 | CNCc1ccc(-c2nnc(-c3nc(N4CCC(c5ccccc5)C4)cnc3N)o2)cc1 (centres unmarked) [Compound I-316, 3-[5-[4-(Methylaminomethyl)phenyl]-1,3,4-oxadiazol-2-yl]-5-(3-phenylpyrrolidin-1-yl)pyrazin-2-amine]
5 | 6.00 to 7.00 | CCNC(=O)[C@H]1CCCN1c1cnc(N)c(-c2nnc(-c3ccc(CNC)cc3)o2)n1 [Compound I-357, (2R)-1-[5-Amino-6-[5-[4-(methylaminomethyl)phenyl]-1,3,4-oxadiazol-2-yl]pyrazin-2-yl]-N-ethyl-pyrrolidine-2-carboxamide]
6 | > 7.00 | Nc1ncc(C2=CCN(C(=O)C3CCC3)CC2)nc1-c1nnc(-c2ccccc2)o1 [Compound I-128, (4-(5-amino-6-(5-phenyl-1,3,4-oxadiazol-2-yl)pyrazin-2-yl)-5,6-dihydropyridin-1(2H)-yl)(cyclobutyl)methanone]
7 | > 7.00 | CCNCc1ccc(-c2nnc(-c3nc(N4CCCC4)cnc3N)o2)cc1 [Compound I-343, 3-[5-[4-(Aethylaminomethyl)phenyl]-1,3,4-oxadiazol-2-yl]-5-pyrrolidin-1-yl-pyrazin-2-amine]
8 | > 7.00 | Nc1ncc(C2=CCN(C(=O)Cc3ccccc3)CC2)nc1-c1nnc(-c2ccccc2)o1 [Compound I-201, 1-(4-(5-amino-6-(5-phenyl-1,3,4-oxadiazol-2-yl)pyrazin-2-yl)-5,6-dihydropyridin-1(2H)-yl)-2-phenylethanone]
9 | > 7.00 | CCC(=O)N1CC=C(c2cnc(N)c(-c3nnc(-c4ccccc4)o3)n2)CC1 [Compound I-301, 1-[4-[5-amino-6-(5-phenyl-1,3,4-oxadiazol-2-yl)pyrazin-2-yl]-3,6-dihydro-2H-pyridin-1-yl]propan-1-one]
10 | 6.00 to 7.00 | CCNC(=O)O[C@H]1CCN(c2cnc(N)c(-c3nnc(-c4ccc(CNC)cc4)o3)n2)C1 [Compound I-372, [(3S)-1-[5-Amino-6-[5-[4-(methylaminomethyl)phenyl]-1,3,4-oxadiazol-2-yl]pyrazin-2-yl]pyrrolidin-3-yl]N-ethylcarbamate]
11 | > 7.00 | CN(C)C(=O)N1CC=C(c2cnc(N)c(-c3nnc(-c4ccccc4)o3)n2)CC1 [Compound I-220, 4-(5-amino-6-(5-phenyl-1,3,4-oxadiazol-2-yl)pyrazin-2-yl)-N,N-dimethyl-5,6-dihydropyridine-1(2H)-carboxamide]
12 | > 7.00 | CCC(=O)N1CCN(c2cnc(N)c(-c3nnc(-c4ccc(CNC)cc4)o3)n2)CC1 [Compound I-327, 1-[4-[5-Amino-6-[5-[4-(methylaminomethyl)phenyl]-1,3,4-oxadiazol-2-yl]pyrazin-2-yl]piperazin-1-yl]propan-1-one]
13 | 6.00 to 7.00 | CCC(=O)N(C)C1CCN(c2cnc(N)c(-c3nnc(-c4ccc(CNC)cc4)o3)n2)CC1 [Compound I-365, N-(1-(5-Amino-6-(5-(4-((methylamino)methyl)phenyl)-1,3,4-oxadiazol-2-yl)pyrazin-2-yl)piperidin-4-yl)-N-methylpropionamide]

Continued, compound first:

Row | SMILES | pKi
14 | CC(C)C(=O)N1CC=C(c2cnc(N)c(-c3nc4cccnc4[nH]3)n2)CC1 [Compound I-67, 1-(4-(5-amino-6-(3H-imidazo[4,5-b]pyridin-2-yl)pyrazin-2-yl)-5,6-dihydropyridin-1(2H)-yl)-2-methylpropan-1-one] | > 7.00
15 | Nc1ncc(C2=CCN(C(=O)N3CCNCC3)CC2)nc1-c1nc2ccccc2[nH]1 [Compound I-280, (4-(5-amino-6-(1H-benzo[d]imidazol-2-yl)pyrazin-2-yl)-5,6-dihydropyridin-1(2H)-yl)(piperazin-1-yl)methanone] | 6.00 to 7.00
16 | Nc1ncc(N2CCN(C(=O)c3ccccc3)CC2)nc1-c1nc2ccccc2[nH]1 [Compound I-208, (4-(5-amino-6-(1H-benzo[d]imidazol-2-yl)pyrazin-2-yl)piperazin-1-yl)(phenyl)methanone] | 6.00 to 7.00
17 | CCS(=O)(=O)N1CC=C(c2cnc(N)c(-c3nc4ccc(F)c(F)c4[nH]3)n2)CC1 [Compound I-153, 3-(6,7-difluoro-1H-benzo[d]imidazol-2-yl)-5-(1-(ethylsulfonyl)-1,2,3,6-tetrahydropyridin-4-yl)pyrazin-2-amine] | > 7.00
18 | Nc1ncc(N2CCN(S(=O)(=O)c3ccoc3)CC2)nc1C(=O)Nc1ccccn1 [Compound I-119, 3-amino-6-(4-(furan-3-ylsulfonyl)piperazin-1-yl)-N-(pyridin-2-yl)pyrazine-2-carboxamide] | 6.00 to 7.00
19 | Nc1ncc(N2CCN(C(=O)C3CCC3)CC2)nc1C(=O)Nc1ccccn1 [Compound I-145, 3-amino-6-(4-(cyclobutanecarbonyl)piperazin-1-yl)-N-(pyridin-2-yl)pyrazine-2-carboxamide] | 6.00 to 7.00
20 | Nc1ncc(N2CCN(C(=O)c3ccccn3)CC2)nc1-c1nc2ccccc2[nH]1 [Compound I-176, (4-(5-amino-6-(1H-benzo[d]imidazol-2-yl)pyrazin-2-yl)piperazin-1-yl)(pyridin-2-yl)methanone] | 6.00 to 7.00
21 | Cn1cnc(S(=O)(=O)N2CC=C(c3cnc(N)c(-c4nnc(-c5ccccc5)o4)n3)CC2)c1 [Compound I-120, 5-(1-(1-methyl-1H-imidazol-4-ylsulfonyl)-1,2,3,6-tetrahydropyridin-4-yl)-3-(5-phenyl-1,3,4-oxadiazol-2-yl)pyrazin-2-amine] | > 7.00
22 | CCS(=O)(=O)N1CC=C(c2cnc(N)c(C(=O)Nc3ccnc(C)c3)n2)CC1 [Compound I-166, 3-amino-6-(1-(ethylsulfonyl)-1,2,3,6-tetrahydropyridin-4-yl)-N-(2-methylpyridin-4-yl)pyrazine-2-carboxamide] | 6.00 to 7.00
23 | Cc1cccc(C)c1C(=O)N1CCN(c2cnc(N)c(C(=O)Nc3ccccn3)n2)CC1 [Compound I-262, 3-amino-6-(4-(2,6-dimethylphenylcarbonyl)piperazin-1-yl)-N-(pyridin-2-yl)pyrazine-2-carboxamide] | 6.00 to 7.00
24 | CN(C)S(=O)(=O)N1CCN(c2cnc(N)c(-c3nc4ccccc4[nH]3)n2)CC1 [Compound I-88, 4-(5-amino-6-(1H-benzo[d]imidazol-2-yl)pyrazin-2-yl)-N,N-dimethylpiperazine-1-sulfonamide] | 6.00 to 7.00
25 | CC(=O)NC1CCN(c2cnc(N)c(-c3nc4ccc(C)cc4[nH]3)n2)CC1 [Compound I-43, N-(1-(5-amino-6-(6-methyl-1H-benzo[d]imidazol-2-yl)pyrazin-2-yl)piperidin-4-yl)ethanamide] | 6.00 to 7.00
26 | Nc1ncc(N2CCNCC2)nc1C(=O)Nc1ccccn1 [Compound I-42, 3-amino-6-(piperazin-1-yl)-N-(pyridin-2-yl)pyrazine-2-carboxamide] | 5.00 to 6.00
